Series [1] has as its system Trypanosoma cruzi. As to the kind of experiment: DNDI: Inhibition of Chagas Disease parasite Trypanosoma cruzi (Tulahuen LacZ, Clone C4), in vitro. Format: functional, organism-based.
The nature of series [2]: DNDI: Cytotoxicity against L929 mouse fibroblasts, CYTO-SP, 24 hour. It counts as toxicity, cell-based. Particulars: mouse, L929 mouse fibroblasts.
Series [3] in a line: DNDI: Cytotoxicity against L-6 rat myoblasts from skeletal muscle cells. It counts as toxicity, cell-based, L6. The settings on record: L-6 rat skeletal muscle myoblasts.
The nature of series [4]: DNDI: Cytotoxicity against L929 mouse fibroblasts, 72 hour. It counts as toxicity, cell-based. Particulars: mouse, L929 mouse fibroblasts.
The subject of series [5] is Trypanosoma brucei. As to the kind of experiment: DNDI: Inhibition of Human African Trypanosomiasis, Cross 22, in vitro. Format: functional, organism-based.
Series [6] relates to Trypanosoma brucei. The series is described as follows: DNDI: Inhibition of Human African Trypanosomiasis, SBRI 427, in vitro. Format: functional, organism-based.
The subject of series [7] is Trypanosoma brucei rhodesiense. As to the kind of experiment: DNDI: Inhibition of Human African Trypanosomiasis (HAT), STIB 900, in vitro. It counts as functional, organism-based.
For series [8], the system named is Leishmania donovani. The series is described as follows: DNDI: Inhibition of formation of Leishmania donovani (strain MHOM/ET/67/L82) axenic amastigotes, in vitro. Format: functional, organism-based.
Series [9] deals with Plasmodium falciparum. The series is described as follows: DNDI: Inhibition of the malaria parasite Plasmodium falciparum, in vitro. Particulars: K1. It counts as functional, organism-based.
Series [10] deals with Trypanosoma brucei. The series is described as follows: DNDI: Mean survival time in days (MSD) of mice after intraperitoneal injection of Human African Trypanosomiasis (HAT), EATRO 110, in vivo at 20 mg/kg/day for 4 days. Format: functional, Mus musculus.
Series [11] is described as follows: DNDI: Lipophilicity measured in Chromatographic hydrophobicity index (CHI) assay, pH 7.4. It counts as physicochemical. Particulars: buffer.
Series [12] in a line: DNDI: Solubility in phosphate buffered saline at pH7.4 measured by nephelometry at room temperature (NEPH-RT). Format: physicochemical. The settings on record: pH 7.4.
The conditions of series [13]: mouse, microsomes, 1 µM.
Description: DNDI: in vitro intrinsic clearance in mouse liver microsomes at a concentration of 1uM
Series [14] can be described thus: in vitro. Particulars: mouse, liver microsomes, t (1 / 2). A general note: Microsomes from liver hold many membrane-bound enzymes, among them those of drug oxidation.
Description: DNDI: half life in mouse liver microsomes at a concentration of 1uM
Series [15] in a line: DNDI: in vitro intrinsic clearance in mouse liver microsomes at a concentration of 10uM. It counts as ADME, Microsome. The settings on record: read-out: CLint in vitro.
The nature of series [16]: DNDI: half life in mouse liver microsomes at a concentration of 10uM. It counts as ADME, Microsome.
The nature of series [17]: DNDI: Solubility in phosphate buffered saline at pH7.4 measured by optical density (turbidimetry) at room temperature (OD-RT). Format: physicochemical. Particulars: pH 7.4.
The mark [18] stands for this setting: Trypanosoma brucei, SBRI 427, read-out: IC50.

Converted amounts (≈) assume the structure as drawn. “And” between values parts separate entries of the source, which are not always exact repeats. Identical values can stand only once. Bounds are passed on as bounds.

For orientation: IC50 means the concentration that gives 50% inhibition. In the case of `CCCCCC(C)NCc1coc(-c2ccc(Br)cc2)n1` (centres undefined), the IC50 in series [1] was 8.2 µg/mL (≈ 23.3 µM); in series [3], 12.7 µg/mL (≈ 36.1 µM); in series [5] it was 2.01 µg/mL (≈ 5.72 µM); in [6] it was 1.34 µg/mL and 1.55 µg/mL; in series [6] (setting [18]) it was 0.9 µg/mL (≈ 2.56 µM); in [7], 0.532 µg/mL (≈ 1.51 µM). Also, the IC50 is 20.4 µg/mL (≈ 58 µM) in series [8] and 2.41 µg/mL (≈ 6.86 µM) in series [9]. The compound also gave an IC50 at 24 h in series [2] of over 50 µg/mL. This compound also showed an IC50 at 72 h in series [4] of 4.47 µg/mL (≈ 12.7 µM).

Turning to `CCCCCC(C)NCc1coc(-c2ccc(Cl)c(Cl)c2)n1` (centres undefined), the IC50 in [1] is 22.2 µg/mL (≈ 65 µM); in series [3], 13.3 µg/mL (≈ 39 µM); in series [6] (setting [18]), 3.68 µg/mL (≈ 10.8 µM); in series [7], 0.487 µg/mL (≈ 1.43 µM); in series [8], 16 µg/mL (≈ 46.9 µM); in series [9] it was 4.3 µg/mL (≈ 12.6 µM). In series [2], this compound yielded an IC50 at 24 h of 17 µg/mL (≈ 49.8 µM). Besides, the IC50 at 72 h in series [4] was 4.75 µg/mL (≈ 13.9 µM).

Regarding `O/N=C1/CCCCCN1`, the IC50 was over 30 µg/mL in series [1]; over 90 µg/mL in series [3]; over 5 µg/mL in series [6] (setting [18]); over 90 µg/mL in series [7]; over 90 µg/mL in series [8]; over 5 µg/mL in series [9]. In [2], the IC50 at 24 h is over 50 µg/mL. In series [4], the IC50 at 72 h is over 10 µg/mL.

What is called chromatographic logD is lipophilicity estimated from chromatographic retention. Low values mean a more hydrophilic compound, high ones a more lipophilic compound. The kinetic solubility is solubility judged after dilution from a stock solution rather than from solid. The half-life is the time needed for the level to fall by half in the phase considered. Lower therefore signals fast loss. On to `CCCCCC(C)NCc1coc(-c2ccc(OC(C)CC)cc2)n1` (centres undefined), for which half-maximal inhibition in [4] (IC50 at 72 h) was put at 1.55 µg/mL (≈ 4.5 µM). Besides, the IC50 in series [6] (setting [18]) stood at 0.68 µg/mL (≈ 1.97 µM). This compound had an MSD in [10] of 4 days. Moreover, in series [11], the chromatographic logD is over 5.2. Further, the solubility (kinetic) in series [12] is 3 µM (≈ 1.03 µg/mL). Moreover, the CLint in vitro in series [13] was 3 µL/min/mg. Moreover, in series [14], the half-life at 1 µM was 257 min.

In turn, `Cc1ccc(CNC(CCc2ccccc2)c2nc(-c3ccccc3)c(N3CCCCC3)o2)cc1` (centres undefined) returned an IC50 at 72 h in series [4] of over 10 µg/mL. Further, in series [6] (setting [18]), the IC50 is over 5 µg/mL. Also, the MSD in [10] was 4 days.

With `CCCCCC(C)NCc1coc(-c2ccc(OC3CCCC3)cc2)n1` (centres undefined), the midpoint of inhibition in [4], the IC50 at 72 h, lay at 1.38 µg/mL (≈ 3.87 µM). Further, the IC50 in [6] (setting [18]) came to 0.73 µg/mL (≈ 2.05 µM). The compound further had an MSD in [10] of 4 days. For the same compound, the chromatographic logD in [11] is over 5.2. This compound yielded a kinetic solubility in [12] of 6 µM (≈ 2.14 µg/mL). In addition, in series [13], the CLint in vitro amounted to 13 µL/min/mg. This compound also showed a half-life at 1 µM in [14] of 67 min.

In the case of `CCCCCC(C)NCc1coc(-c2ccc(OCC(C)C)cc2)n1` (centres undefined), half-maximal inhibition in [4] (IC50 at 72 h) required 1.48 µg/mL (≈ 4.3 µM). Further, the IC50 in [6] (setting [18]) was determined as 0.5 µg/mL (≈ 1.45 µM). The MSD in [10] stood at 4 days. For the same compound, the chromatographic logD in series [11] was over 5.2. In series [12], this compound yielded a kinetic solubility of 3 µM (≈ 1.03 µg/mL). This compound also showed a CLint in vitro in series [13] of 9 µL/min/mg. The compound further had a half-life at 1 µM in series [14] of 94 min.

`O/N=C(\Nc1cccc(F)c1)c1cccnc1Oc1c(F)cccc1F`: in series [4], the IC50 at 72 h was over 10 µg/mL. Also, the IC50 in series [6] (setting [18]) is over 5 µg/mL. This compound gave an MSD in [10] of 4 days.

Regarding `CCCCCC(C)NCc1coc(-c2cccc(OCC)c2)n1` (centres undefined), the IC50 at 24 h in [2] is 17 µg/mL (≈ 53.7 µM). In [4], this compound registered an IC50 at 72 h of 6.82 µg/mL (≈ 21.6 µM). Further, the IC50 in series [6] (setting [18]) was 2.13 µg/mL (≈ 6.73 µM). The chromatographic logD in [11] turned out to be 4.83. Further, the microsomal CLint at 10 µM in series [15] is 97 µL/min/mg. Moreover, the half-life at 10 µM in [16] is 30 min. In addition, the kinetic solubility in [17] came to 6.3 µM (≈ 1.99 µg/mL).

In the case of `Cc1ccc(CNC(CC(C)C)c2nc(Cc3ccccc3)c(N3CCOCC3)o2)cc1` (centres undefined), the IC50 at 72 h in series [4] was over 10 µg/mL. The IC50 in series [6] (setting [18]) was 1.64 µg/mL (≈ 3.78 µM). In [10], the MSD turned out to be 4 days. In series [13], this compound gave a CLint in vitro of 155 µL/min/mg. The half-life at 1 µM in [14] was 5 min.

`CCc1cccc(N/C(=N/O)c2ccc(OC)cc2)c1`: the half-inhibitory concentration (IC50) came out at 17 µg/mL (≈ 62.9 µM) in [1]; 44.7 µg/mL (≈ 165 µM) in series [3]; 0.76 µg/mL (≈ 2.81 µM) in series [6] (setting [18]); 34.3 µg/mL (≈ 127 µM) in [7]; 26.6 µg/mL (≈ 98.3 µM) in [8]; 3.87 µg/mL (≈ 14.3 µM) in series [9]. Besides, in series [2], the IC50 at 24 h was over 50 µg/mL. The compound also returned an IC50 at 72 h in series [4] of over 10 µg/mL. Also, the MSD in series [10] is 4 days. In addition, the chromatographic logD in [11] was 3.76. The compound also gave a kinetic solubility in series [12] of over 200 µM. The CLint in vitro in series [13] was determined as 470 µL/min/mg. The half-life at 1 µM in [14] came out at 2 min.

As for `CCc1cccc(N/C(=N/O)c2ccccc2-c2ccccc2)c1`, the IC50 in series [1] is 5.38 µg/mL (≈ 17 µM); in series [3], 9.67 µg/mL (≈ 30.6 µM); in series [6] (setting [18]), 1.23 µg/mL (≈ 3.89 µM); in series [7] it was 20.9 µg/mL (≈ 66.1 µM); in series [8] it was 4.96 µg/mL (≈ 15.7 µM); in series [9], 4.43 µg/mL (≈ 14 µM). Moreover, the IC50 at 24 h in series [2] was determined as 25.3 µg/mL (≈ 80 µM). The compound also had an IC50 at 72 h in series [4] of 2.4 µg/mL (≈ 7.59 µM).

In the case of `CCc1ccc(Oc2ncccc2/C(=N\O)NC2CCCCC2)cc1`, the IC50 at 72 h in series [4] was over 10 µg/mL. In addition, the IC50 in series [6] (setting [18]) stood at 0.09 µg/mL (≈ 0.265 µM). Further, in series [10], the MSD came out at 4 days.
